Experimental data: US20190388425A1, “SUBSTITUTED IMIDAZOPYRIDINPYRIMIDINES” (Bayer Pharma Aktiengesellschaft, priority 2017, published 2019)
Where two headings read alike, the source gives them in different places.

Molecular target: T1, human full-length MKNK1 (Homo sapiens, UniProt Q9BUB5, T385D)
T1 construct: GST (N); purchased Carna Biosciences 02-145; host or cells: insect cells (baculovirus expression system)
Assay: MKNK1 kinase high ATP assay (TR-FRET)
Assay type: biochemical
Description: MKNK1 Kinase High ATP Assay
MKNK1-inhibitory activity at high ATP of compounds of the present invention after their preincubation with MKNK1 was quantified employing the TR-FRET-based MKNK1 high ATP assay as described in the following paragraphs.
As substrate for the kinase reaction the biotinylated peptide biotin-Ahx-[…] (C-terminus in amide form) was used, which can be purchased e.g. from the company Biosyntan (Berlin-Buch, Germany).
For the assay 50 nL of a 100 fold concentrated solution of the test compound in DMSO was pipetted into a black low volume 384 well microtiter plate (Greiner Bio-One, Frickenhausen, Germany), 2 μL of a solution of MKNK1 in aqueous assay buffer [50 mM HEPES pH 7.5, 5 mM MgCl2, 1.0 mM dithiothreitol, 0.005% (v/v) Nonidet-P40 (Sigma)] was added and the mixture was incubated for 15 min at 22° C. to allow pre-binding of the test compounds to the enzyme before the start of the kinase reaction. Then the kinase reaction was started by the addition of 3 μL of a solution of adenosine-tri-phosphate (ATP, 3.3 mM=>final conc. in the 5 μL assay volume is 2 mM) and substrate (0.1 μM=>final conc. in the 5 μL assay volume is 0.06 μM) in assay buffer and the resulting mixture was incubated for a reaction time of 30 min at 22° C. The concentration of MKNK1 was adjusted depending of the activity of the enzyme lot and was chosen appropriate to have the assay in the linear range, typical concentrations were in the range of 0.003 μg/mL. The reaction was stopped by the addition of 5 μL of a solution of TR-FRET detection reagents (5 nM streptavidine-XL665 [Cisbio Bioassays, Codolet, France] and 1 nM anti-ribosomal protein S6 (pSer236)-antibody from Invitrogen [#44921G] and 1 nM LANCE EU-W1024 labeled ProteinG [Perkin-Elmer, product no. AD0071]) in an aqueous EDTA-solution (100 mM EDTA, 0.1% (w/v) bovine serum albumin in 50 mM HEPES pH 7.5).
The resulting mixture was incubated for 1 h at 22° C. to allow the formation of complex between the phosphorylated biotinylated peptide and the detection reagents. Subsequently the amount of phosphorylated substrate was evaluated by measurement of the resonance energy transfer from the Eu-chelate to the streptavidine-XL. Therefore, the fluorescence emissions at 620 nm and 665 nm after excitation at 350 nm were measured in a TR-FRET reader, e.g. a Rubystar (BMG Labtechnologies, Offenburg, Germany) or a Viewlux (Perkin-Elmer). The ratio of the emissions at 665 nm and at 622 nm was taken as the measure for the amount of phosphorylated substrate.

[1] = TR-FRET, 2 mM ATP (high ATP), 15 min preincubation with enzyme, 30 min reaction at 22° C., read-out: MKNK1 IC50

T1 sequence (Q9BUB5 1-424 isoform Q9BUB5-2 T344D): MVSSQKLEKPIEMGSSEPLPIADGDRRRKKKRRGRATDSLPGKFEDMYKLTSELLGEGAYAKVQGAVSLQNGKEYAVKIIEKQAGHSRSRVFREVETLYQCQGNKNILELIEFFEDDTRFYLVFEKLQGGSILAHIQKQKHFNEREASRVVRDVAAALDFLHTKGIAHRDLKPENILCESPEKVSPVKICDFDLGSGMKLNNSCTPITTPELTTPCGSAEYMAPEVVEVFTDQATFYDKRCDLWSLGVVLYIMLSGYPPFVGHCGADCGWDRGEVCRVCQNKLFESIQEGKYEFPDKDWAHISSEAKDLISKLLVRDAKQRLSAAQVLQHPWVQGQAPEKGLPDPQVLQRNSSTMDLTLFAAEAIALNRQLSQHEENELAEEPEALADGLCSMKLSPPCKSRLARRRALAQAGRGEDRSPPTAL

SMILES	IC50 [1] [pM]	IC50 [pM]
Cc1cc(Nc2ncnc3sc4c(c23)CC[C@H](C(=O)O)C4)c(=O)n2c1C(=O)NC21CCCCC1 [Example 1, (7S)-4-[(8′-Methyl-1′,5′-dioxo-1′,5′-dihydro-2′H-spiro[cyclohexane-1,3′-imidazo[1,5-a]pyridin]-6′-yl)amino]-5,6,7,8-tetrahydro[1]benzothieno[2,3-d]pyrimidine-7-carboxylic acid]	9000	
Cc1cc(Nc2ncnc3sc4c(c23)CC[C@H](C(=O)N(C)C)C4)c(=O)n2c1C(=O)NC21CCCCC1 [Example 2, (7S)—N, N-Dimethyl-4-[(8′-methyl-1′,5′-dioxo-1′,5′-dihydro-2′H-spiro[cyclohexane-1,3′-imidazo[1,5-a]pyridin]-6′-yl)amino]-5,6,7,8-tetrahydro[1]benzothieno[2,3-d]pyrimidine-7-carboxamide]	200	
Cc1cc(Nc2ncnc3sc4c(c23)CC[C@H](C(=O)N2CCC2)C4)c(=O)n2c1C(=O)NC21CCCCC1 [Example 3, 6′-{[(7S)-7-(Azetidin-1-ylcarbonyl)-5,6,7,8-tetrahydro[1]benzothieno[2,3-d]pyrimidin-4-yl]amino}-8′-methyl-2′H-spiro[cyclohexane-1,3′-imidazo[1,5-a]pyridine]-1′,5′-dione]	300	
CNC(=O)[C@H]1CCc2c(sc3ncnc(Nc4cc(C)c5n(c4=O)C4(CCCCC4)NC5=O)c23)C1 [Example 4, (7S)—N-Methyl-4-[(8′-methyl-1′,5′-dioxo-1′,5′-dihydro-2′H-spiro[cyclohexane-1,3′-imidazo[1,5-a]pyridin]-6′-yl)amino]-5,6,7,8-tetrahydro[1]benzothieno[2,3-d]pyrimidine-7-carboxamide]	400	
Cc1cc(Nc2ncnc3sc4c(c23)CC[C@H](C(=O)N2CC(C#N)C2)C4)c(=O)n2c1C(=O)NC21CCCCC1 [Example 5, 1-({(7S)-4-[(8′-Methyl-1′,5′-dioxo-1′,5′-dihydro-2′H-spiro[cyclohexane-1,3′-imidazo[1,5-a]pyridin]-6′-yl)amino]-5,6,7,8-tetrahydro[1]benzothieno[2,3-d]pyrimidin-7-yl}carbonyl)azetidine-3-carbonitrile]	1100	
Cc1cc(Nc2ncnc3sc4c(c23)CC[C@H](C(=O)N2CC(C)(O)C2)C4)c(=O)n2c1C(=O)NC21CCCCC1 [Example 6, 6′-({(7S)-7-[(3-Hydroxy-3-methylazetidin-1-yl)carbonyl]-5,6,7,8-tetrahydro[1]benzothieno[2,3-d]pyrimidin-4-yl}amino)-8′-methyl-2′H-spiro[cyclohexane-1,3′-imidazo[1,5-a]pyridine]-1′,5′-dione]	1500	
Cc1cc(Nc2ncnc3sc4c(c23)CC[C@H](C(=O)N2CC(NC(=O)OC(C)(C)C)C2)C4)c(=O)n2c1C(=O)NC21CCCCC1 [Example 7, tert-Butyl [1-({(7S)-4-[(8′-methyl-1′,5′-dioxo-1′,5′-dihydro-2′H-spiro[cyclohexane-1,3′-imidazo[1,5-a]pyridin]-6′-yl)amino]-5,6,7,8-tetrahydro[1]benzothieno[2,3-d]pyrimidin-7-yl}carbonyl)azetidin-3-yl]carbamate]	4200	
Cc1cc(Nc2ncnc3sc4c(c23)CC[C@H](C(=O)N2C[C@H]3C[C@@H]2CO3)C4)c(=O)n2c1C(=O)NC21CCCCC1 [Example 8, 8′-Methyl-6′-({(7S)-7-[(1R,4R)-2-oxa-5-azabicyclo[2.2.1]hept-5-ylcarbonyl]-5,6,7,8-tetrahydro[1]benzothieno[2,3-d]pyrimidin-4-yl}amino)-2′H-spiro[cyclohexane-1,3′-imidazo[1,5-a]pyridine]-1′,5′-dione]	600	
Cc1cc(Nc2ncnc3sc4c(c23)CC[C@H](C(=O)N2CC[C@H](N(C)C)C2)C4)c(=O)n2c1C(=O)NC21CCCCC1 [Example 9, 6′-{[(7S)-7-{[(3S)-3-(Dimethylamino)pyrrolidin-1-yl]carbonyl}-5,6,7,8-tetrahydro[1]benzothieno[2,3-d]pyrimidin-4-yl]amino}-8′-methyl-2′H-spiro[cyclohexane-1,3′-imidazo[1,5-a]pyridine]-1′,5′-dione]	100	
Cc1cc(Nc2ncnc3sc4c(c23)CC[C@H](C(=O)N2CCC(=O)CC2)C4)c(=O)n2c1C(=O)NC21CCCCC1 [Example 10, 8′-Methyl-6′-({(7S)-7-[(4-oxopiperidin-1-yl)carbonyl]-5,6,7,8-tetrahydro[1]benzothieno[2,3-d]pyrimidin-4-yl}amino)-2′H-spiro[cyclohexane-1,3′-imidazo[1,5-a]pyridine]-1′,5′-dione]		300
Cc1cc(Nc2ncnc3sc4c(c23)CC[C@H](C(=O)N2CC(N)C2)C4)c(=O)n2c1C(=O)NC21CCCCC1 [Example 11, 6′-({(7S)-7-[(3-Aminoazetidin-1-yl)carbonyl]-5,6,7,8-tetrahydro[1]benzothieno[2,3-d]pyrimidin-4-yl}amino)-8′-methyl-2′H-spiro[cyclohexane-1,3′-imidazo[1,5-a]pyridine]-1′,5′-dione]	500	
Cc1cc(Nc2ncnc3sc4c(c23)CC[C@H](C(=O)N(C)CCN(C)C)C4)c(=O)n2c1C(=O)NC21CCCCC1 [Example 12, (7S)—N-[2-(Dimethylamino)ethyl]-N-methyl-4-[(8′-methyl-1′,5′-dioxo-1′,5′-dihydro-2′H-spiro[cyclohexane-1,3′-imidazo[1,5-a]pyridin]-6′-yl)amino]-5,6,7,8-tetrahydro[1]benzothieno[2,3-d]pyrimidine-7-carboxamide]	200	
Cc1cc(Nc2ncnc3sc4c(c23)CC[C@H](C(=O)N2C3CCC2CC(=O)C3)C4)c(=O)n2c1C(=O)NC21CCCCC1 [Example 13, 8′-Methyl-6′-({(7S)-7-[(3-oxo-8-azabicyclo[3.2.1]oct-8-yl)carbonyl]-5,6,7,8-tetrahydro[1]benzothieno[2,3-d]pyrimidin-4-yl}amino)-2′H-spiro[cyclohexane-1,3′-imidazo[1,5-a]pyridine]-1′,5′-dione]	400	
Cc1cc(Nc2ncnc3sc4c(c23)CC[C@H](C(=O)N2CCN(C)[C@@H](C)C2)C4)c(=O)n2c1C(=O)NC21CCCCC1 [Example 14, 6′-{[(7S)-7-{[(3S)-3,4-Dimethylpiperazin-1-yl]carbonyl}-5,6,7,8-tetrahydro[1]benzothieno[2,3-d]pyrimidin-4-yl]amino}-8′-methyl-2′H-spiro[cyclohexane-1,3′-imidazo[1,5-a]pyridine]-1′,5′-dione]	800	
Cc1cc(Nc2ncnc3sc4c(c23)CC[C@H](C(=O)O)C4)c(=O)n2c1C(=O)NC2(C)C [Example 15, (7S)-4-[(3,3,8-Trimethyl-1,5-dioxo-1,2,3,5-tetrahydroimidazo[1,5-a]pyridin-6-yl)amino]-5,6,7,8-tetrahydro[1]benzothieno[2,3-d]pyrimidine-7-carboxylic acid]	15600	
Cc1cc(Nc2ncnc3sc4c(c23)CC[C@H](C(=O)O)C4)c(=O)n2c1C(=O)NC21CCC1 [Example 16, (7S)-4-[(8′-Methyl-1′,5′-dioxo-1′,5′-dihydro-2′H-spiro[cyclobutane-1,3′-imidazo[1,5-a]pyridin]-6′-yl)amino]-5,6,7,8-tetrahydro[1]benzothieno[2,3-d]pyrimidine-7-carboxylic acid]	3900	
Cc1cc(Nc2ncnc3sc4c(c23)CC[C@H](C(N)=O)C4)c(=O)n2c1C(=O)NC21CCCCC1 [Example 17, (7S)-4-[(8′-Methyl-1′,5′-dioxo-1′,5′-dihydro-2′H-spiro[cyclohexane-1,3′-imidazo[1,5-a]pyridin]-6′-yl)amino]-5,6,7,8-tetrahydro[1]benzothieno[2,3-d]pyrimidine-7-carboxamide]	500	
Cc1cc(Nc2ncnc3sc4c(c23)CC[C@H](C(=O)N2CCOC[C@H]2C)C4)c(=O)n2c1C(=O)NC21CCCCC1 [Example 18, 8′-methyl-6′-{[(7S)-7-{[(3R)-3-methylmorpholin-4-yl]carbonyl}-5,6,7,8-tetrahydro[1]benzothieno[2,3-d]pyrimidin-4-yl]amino}-2′H-spiro[cyclohexane-1,3′-imidazo[1,5-a]pyridine]-1′,5′-dione]	300	
Cc1cc(Nc2ncnc3sc4c(c23)CC[C@H](C(=O)N2CC(N(C)C)C2)C4)c(=O)n2c1C(=O)NC21CCCCC1 [Example 19, 6′-{[(7S)-7-{[3-(Dimethylamino)azetidin-1-yl]carbonyl}-5,6,7,8-tetrahydro[1]benzothieno[2,3-d]pyrimidin-4-yl]amino}-8′-methyl-2′H-spiro[cyclohexane-1,3′-imidazo[1,5-a]pyridine]-1′,5′-dione]	900	
